Assay results as given in patent US8088918B2, “Noncardiotoxic pharmaceutical compounds” (Williamsburg Holdings LLC, priority 2004, dated 2012).
Values belong to the molecule of their own block, whether it stands above or below them.

What was measured:
[1] = human plasma; cited from earlier work
[2] = parent drugs; cited from earlier work
CYP2D6 [3] = target: T1, CYP2D6 (Homo sapiens, UniProt P10635); conditions: cited from earlier work
[4] = preclinical and clinical studies; cited from earlier work
[5] = oral administration; cited from earlier work
[6] = healthy volunteers, therapeutic plasma concentrations; cited from earlier work
[7] = Stability testing of prodrugs in human plasma; assay type: in vitro ADME; conditions: 10 μM, ca. 37° C.
Method: (§1) Pooled human plasma was obtained from Bioreclamation (East Meadow, N.Y.) by collection into sodium EDTA as the anticoagulant, and was stored at ca −20° C. prior to use. Prior to use, the plasma defrosted and was spun at ca. 3000 rpm for 5 minutes to remove any precipitate. The pH of the plasma was adjusted to pH 7.4 by careful addition of NaH2PO4 buffer.
(§2) Plasma stability was assessed by incubation of 10 μM of each compound prepared in Examples 1-5 with human plasma, in duplicate, at ca. 37° C. with shaking. Each compound prepared in Examples 1-5 was also incubated at 10 μM in PBS as a control for compound heat stability. Aliquots were removed at 0, 0.5, 1 and 2 hours and stored at −20° C. until analysis.
(§3) For analysis, plasma samples were extracted in 1 part acetonitrile and isolation of the supernatant. Analysis of each compound prepared in Examples 1-5 in plasma extracts was conducted by an LC-MS method at each time interval and quantification was achieved by comparison of the response due to the sample to that of a three point standard curve. Appearance of the parent drug the hydroxymetabolites were also monitored at each time interval. The % degradation following incubation at each time point was calculated by comparison of the parent concentration to that at 0 minutes.

[8] = Stability testing of prodrugs in rat plasma (elevated esterase activity); assay type: in vitro ADME, Sprague-Dawley rat; conditions: 10 μM, ca. 37° C.
Method: as §1, with “Sprague-Dawley rat” for “Pooled human”, “obtained” for “obtained from Bioreclamation (East Meadow, N.Y.)”
as §2, with “rat” for “human”
as §3, with “drug and” for “drug”

[9] = Metabolic stability, microsomal incubations without inhibitor; assay type: in vitro ADME; conditions: 10 μM, 0.5 mg/mL microsomal protein
Method: (§4) The metabolic stability of each compound prepared in Examples 1-5 was assessed in microsomal preparations obtained from BD Gentest (Woburn, Mass.).
(§5) The metabolic stability of each compound prepared in Examples 1-5 was assessed in duplicate by incubation of 10 μM compound with 0.5 mg/mL microsomal protein, 1 mM in 0.1 M phosphate buffer, pH 7.4 in the presence and absence of a CYP3A4 inhibitor (ketoconazole). The reaction mixture was pre-incubated, in the absence of the microsomes, at ca. 37° C. for 5 minutes, followed by initiation of the incubation by the addition of microsomal protein and maintained at ca. 37° C. for a further 0, 30 and 60 minutes. After the appropriate incubation time, the mixtures were quenched by the addition of one volume of acetonitrile and the supernatant was isolated by centrifugation. Positive control incubations (7-ethoxycoumarin) were performed in the same manner as the compounds from Examples 1-5 and quenched after 0 and 30 minutes. In addition, negative control incubations were performed for 60 minutes in the absence of NADPH to assess chemical stability.
(§6) Analysis of supernatants from each time interval was conducted for each compound prepared in Examples 1-5 by LC-MS analysis. Quantification of the disappearance on the parent drug was achieved by comparison of the sample response to that of a suitable standard curve constructed in 0.1 M phosphate buffer, pH 7.4. The standard curve ranged between ≦1% up to ≧100% of the dosing concentration.
(§7) The % turnover following 60 minutes of incubation was calculated by comparison of the parent concentration to that at 0 minutes. The % degradation was calculated in the same manner from the negative control incubations. Appearance of the parent drug and the hydroxymetabolites were also monitored at each time interval.

[10] = Metabolic stability, microsomal incubations with ketoconazole (CYP3A4 inhibitor); assay type: in vitro ADME; conditions: 10 μM, 0.5 mg/mL microsomal protein
Method: as §4, §5, §6, §7

recombinant human CYP3A4 = target: T2, recombinant human CYP3A4 (Homo sapiens, UniProt P08684); assay: Metabolic stability in the presence of CYP3A4 isozyme; assay type: in vitro ADME; conditions: 10 μm compound
T2 construct: purchased BD Gentest (Woburn, Mass.)
Method: (§8) The metabolic stability of each compound prepared in Examples 1-5 was assessed in the presence of CYP2D6 and CYP3A4 obtained from BD Gentest (Woburn, Mass.).
(§9) The metabolic stability of each compound prepared in Examples 1-5 was assessed in duplicate by incubation of 10 μm compound with recombinant human CYP2D6 and 3A4 using similar conditions to those in Example 9. Samples were removed for analysis at 0, 30 and 60 minutes and extracted with one volume of organic solvent. Appropriate controls were included. Quantification of the disappearance of the prodrug was conducted LC-MS. Appearance of metabolites was also monitored.

CYP2D6 [11] = target: T1, CYP2D6; assay: Metabolic stability in the presence of CYP2D6 isozyme; assay type: in vitro ADME; parameters: purchased BD Gentest (Woburn, Mass.); conditions: 10 μm compound
Method: as §8, §9

[12] = Stability testing in simulated gastric fluids; conditions: 10 μM, saline pH approximately 1 plus pepsin
[13] = Stability testing in simulated intestinal fluids; conditions: 10 μM

T1 sequence (P10635 whole entry): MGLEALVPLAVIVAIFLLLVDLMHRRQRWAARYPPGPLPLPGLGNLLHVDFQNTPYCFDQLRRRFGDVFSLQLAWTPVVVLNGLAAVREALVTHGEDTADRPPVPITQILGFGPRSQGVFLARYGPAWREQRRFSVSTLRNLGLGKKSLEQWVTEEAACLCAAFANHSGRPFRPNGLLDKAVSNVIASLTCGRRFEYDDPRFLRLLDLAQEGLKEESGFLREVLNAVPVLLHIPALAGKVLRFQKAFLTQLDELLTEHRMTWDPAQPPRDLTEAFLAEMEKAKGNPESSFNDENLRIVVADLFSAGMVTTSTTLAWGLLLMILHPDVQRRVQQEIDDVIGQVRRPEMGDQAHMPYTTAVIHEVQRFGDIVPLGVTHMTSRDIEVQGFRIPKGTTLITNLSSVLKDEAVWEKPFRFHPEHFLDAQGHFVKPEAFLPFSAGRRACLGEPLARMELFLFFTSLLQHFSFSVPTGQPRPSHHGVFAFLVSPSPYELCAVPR
T2 sequence (P08684 whole entry): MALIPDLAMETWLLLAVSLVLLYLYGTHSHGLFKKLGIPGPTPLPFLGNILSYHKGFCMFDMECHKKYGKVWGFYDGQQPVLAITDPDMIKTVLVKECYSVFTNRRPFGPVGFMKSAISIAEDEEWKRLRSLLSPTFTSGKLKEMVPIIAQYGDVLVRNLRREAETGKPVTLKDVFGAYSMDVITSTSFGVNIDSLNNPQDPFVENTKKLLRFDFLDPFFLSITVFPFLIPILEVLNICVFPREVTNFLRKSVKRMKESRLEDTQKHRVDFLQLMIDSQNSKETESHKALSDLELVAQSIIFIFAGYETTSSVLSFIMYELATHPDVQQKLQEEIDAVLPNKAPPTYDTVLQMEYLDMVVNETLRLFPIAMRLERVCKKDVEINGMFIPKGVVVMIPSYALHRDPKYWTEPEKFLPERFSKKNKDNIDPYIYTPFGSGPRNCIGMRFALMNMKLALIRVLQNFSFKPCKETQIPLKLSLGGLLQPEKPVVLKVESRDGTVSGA

Structure (SMILES): Fc1ccc([C@@H]2CCNC[C@H]2COc2ccc3c(c2)OCO3)cc1 [paroxetine]
AUC(0-24) [1]: 96.5 ng·h/mL
Cmax [1]: 8.60 ng/mL
Tmax [1]: 5 (3-5) hours
pKa [2]: 9.90

Structure (SMILES): C[N+](C)([O-])CCCN1c2ccccc2CCc2ccccc21 [imipramine-N-oxide, Imipramine-N-oxide]
metabolism by CYP2D6 to the hydroxymetabolite (CYP2D6 [3]): abolished the metabolism of imipramine by CYP2D6 to the hydroxymetabolite
cardiotoxicity compared with imipramine [4]: significantly reduced
systemic availability [5]: about 100%

Structure (SMILES): CC(CC(c1ccccc1)c1ccccc1)NC(C)(C)C (stereo not shown) [terodiline]
increase in mean QTc [6]: 23 ms

Loss of parent compound in human plasma (%) ([7]; incubation time 0 min): 0.00%
Loss of parent compound in human plasma (%) ([7]; incubation time 30 min): 5.11%
Loss of parent compound in human plasma (%) ([7]; incubation time 60 min): −1.48%
Loss of parent compound in human plasma (%) ([7]; incubation time 120 min): 25.82%
Loss of parent compound in rat plasma (%) ([8]; incubation time 0 min): 0.00%
Loss of parent compound in rat plasma (%) ([8]; incubation time 30 min): −14.69%
Loss of parent compound in rat plasma (%) ([8]; incubation time 60 min): −2.88%
Loss of parent compound in rat plasma (%) ([8]; incubation time 120 min): 33.40%
Loss of parent compound with no ketoconazole (%) ([9]; incubation time 30 min): 54.01%
Loss of parent compound with no ketoconazole (%) ([9]; incubation time 60 min): 76.36%
Loss of parent compound with ketoconazole (%) ([10]; incubation time 30 min): 6.36%
Loss of parent compound with ketoconazole (%) ([10]; incubation time 60 min): 19.49%
Loss of parent compound with CYP3A4 isozyme (%) (recombinant human CYP3A4; incubation time 0 min): 0.00%
Loss of parent compound with CYP3A4 isozyme (%) (recombinant human CYP3A4; incubation time 30 min): 72.07%
Loss of parent compound with CYP3A4 isozyme (%) (recombinant human CYP3A4; incubation time 60 min): 90.69%
Loss of parent compound with CYP2D6 isozyme (%) (CYP2D6 [11]; incubation time 0 min): 0.00%
Loss of parent compound with CYP2D6 isozyme (%) (CYP2D6 [11]; incubation time 30 min): 43.71%
Loss of parent compound with CYP2D6 isozyme (%) (CYP2D6 [11]; incubation time 60 min): 70.07%
Loss of parent compound in simulated gastric fluid (%) ([12]; incubation time 0 min): 0.00%
Loss of parent compound in simulated gastric fluid (%) ([12]; incubation time 30 min): 70.64%
Loss of parent compound in simulated gastric fluid (%) ([12]; incubation time 60 min): 82.77%
Loss of parent compound in simulated gastric fluid (%) ([12]; incubation time 120 min): 98.11%
Loss of parent compound in simulated intestinal fluid (%) ([13]; phosphate pH 6, incubation time 0 min): 0.00%
Loss of parent compound in simulated intestinal fluid (%) ([13]; phosphate pH 6, incubation time 30 min): 1.05%
Loss of parent compound in simulated intestinal fluid (%) ([13]; phosphate pH 6, incubation time 60 min): 12.68%
Loss of parent compound in simulated intestinal fluid (%) ([13]; phosphate pH 6, incubation time 120 min): 21.78%
Structure (SMILES): CC(C)COC(=O)N(C)CCCN1c2ccccc2CCc2ccccc21 [RIC-5c, [3-(10,11-Dihydro-dibenzo[b,f]azepin-5-yl)-propyl]-methyl-carbamic acid isobutyl ester]
